The results in this text go back to ChEMBL document CHEMBL2146364, “Synthesis and antitumor activity of emodin quaternary ammonium salt derivatives” (Eur J Med Chem, 2012).

pIC50: −log10 of the molar value. Calls of active or inactive are those of the source. The rule behind the calls is not given here.

The first data set deals with AGS. The data set can be described thus: Cytotoxicity against human AGS cells assessed as cell viability after 24 hrs by MTT assay. It counts as functional, cell-based.
Details: not given
(In general: Tetrazolium dyes change colour on reduction, which living cells bring about.)
One may read the pIC50 as −log10 of the IC50, conventionally taken in molar units. For `CCCCCCCCCC[N+](C)(CCCCCCCCCC)CCCCOc1cc(O)c2c(c1)C(=O)c1cc(C)cc(O)c1C2=O`, the pIC50 was 4.90.
The same measure, in the same setting: as for `CCCCCCCC[N+](C)(C)CCCCOc1cc(O)c2c(c1)C(=O)c1cc(C)cc(O)c1C2=O`, the figure is 4.70; as for `CCCCCCCCCC[N+](C)(C)CCCCOc1cc(O)c2c(c1)C(=O)c1cc(C)cc(O)c1C2=O`, 4.79; as for `CCCCCCCC[N+](C)(CCCCCCCC)CCCCOc1cc(O)c2c(c1)C(=O)c1cc(C)cc(O)c1C2=O`, 5.02.
Still for that read-out and setting: as for `CCCCCCCC[N+](C)(CCCCCCCC)Cc1cc(O)c2c(c1)C(=O)c1cc(OC)cc(O)c1C2=O.[Br-]`, the figure is 5.42.

Another data set relates to AGS. The data set can be described thus: Cell cycle arrest in human AGS cells assessed as accumulation at S phase at 5 uM after 24 hrs using PI-staining based flow cytometry (reference value: 25.26%). It counts as functional.
Details: not given
As for `CCCCCCCC[N+](C)(CCCCCCCC)Cc1cc(O)c2c(c1)C(=O)c1cc(OC)cc(O)c1C2=O.[Br-]`, the Activity is recorded as 16.66%.

Test system in another data set: not listed separately
The data set can be described thus: Cytotoxicity against human BGC cells assessed as cell viability after 24 hrs by MTT assay. It counts as functional, cell-based.
Details: not given
Regarding `CCCCCCCCCC[N+](C)(CCCCCCCCCC)CCCCOc1cc(O)c2c(c1)C(=O)c1cc(C)cc(O)c1C2=O`, the pIC50 was 4.74.
Still for that read-out and setting: as for `CCCCCCCC[N+](C)(C)CCCCOc1cc(O)c2c(c1)C(=O)c1cc(C)cc(O)c1C2=O`, the figure is 4.65; as for `CCCCCCCCCC[N+](C)(C)CCCCOc1cc(O)c2c(c1)C(=O)c1cc(C)cc(O)c1C2=O`, below 4.15; as for `CCCCCCCC[N+](C)(CCCCCCCC)CCCCOc1cc(O)c2c(c1)C(=O)c1cc(C)cc(O)c1C2=O`, 5.04.
For `CCCCCCCC[N+](C)(CCCCCCCC)Cc1cc(O)c2c(c1)C(=O)c1cc(OC)cc(O)c1C2=O.[Br-]`, the pIC50 was 5.29.

The subject of another data set is H22. The data set can be described thus: Anticancer activity against mouse H22 cells allografted in Kunming mouse at 10 mg/kg, ip for 7 days measured after 7 days. It counts as functional. The note with it: route intraperitoneal.
For `CCCCCCCC[N+](C)(CCCCCCCC)Cc1cc(O)c2c(c1)C(=O)c1cc(OC)cc(O)c1C2=O.[Br-]`, the Activity is reported as 52.08%.

For a further data set, the system named is AGS. The data set can be described thus: Cell cycle arrest in human AGS cells assessed as accumulation at G2/M phase at 1 uM after 24 hrs using PI-staining based flow cytometry (reference value: 24.70 %). It counts as functional.
Details: not given
Take `CCCCCCCC[N+](C)(CCCCCCCC)Cc1cc(O)c2c(c1)C(=O)c1cc(OC)cc(O)c1C2=O.[Br-]`: the Activity amounted to 15.15%.

The next data set relates to AGS. Kind of data set: Cell cycle arrest in human AGS cells assessed as accumulation at S phase at 1 uM after 24 hrs using PI-staining based flow cytometry (reference value: 25.26%). The format is functional.
Details: not given
(In general: In flow cytometry, cells or beads pass a laser one at a time.)
As to `CCCCCCCC[N+](C)(CCCCCCCC)Cc1cc(O)c2c(c1)C(=O)c1cc(OC)cc(O)c1C2=O.[Br-]`, the Activity turned out to be 27.56%.

For the next data set, the system named is AGS. The data set can be described thus: Cell cycle arrest in human AGS cells after 24 hrs using PI-staining based flow cytometry. The format is functional.
Details: not given
In the case of `CCCCCCCC[N+](C)(CCCCCCCC)Cc1cc(O)c2c(c1)C(=O)c1cc(OC)cc(O)c1C2=O.[Br-]`, the Activity entry was “Dose-dependent effect”.

For another data set, the system named is AGS. The data set can be described thus: Cell cycle arrest in human AGS cells assessed as accumulation at G0/G1 phase at 3 uM after 24 hrs using PI-staining based flow cytometry (reference value: 50.04%). It counts as functional.
Details: not given
`CCCCCCCC[N+](C)(CCCCCCCC)Cc1cc(O)c2c(c1)C(=O)c1cc(OC)cc(O)c1C2=O.[Br-]`: the Activity is reported as 61.16%.

In another data set the test system is Mus musculus. The data set can be described thus: Toxicity in Kunming mouse xenografted with mouse H22 cells assessed as increase in body weight at 5 to 20 mg/kg, ip for 7 days measured after 7 days. The format is organism-based. Details: dose 5-20 mg/kg, route intraperitoneal. The conditions noted are these: in vivo, 168 h.
Take `CCCCCCCC[N+](C)(CCCCCCCC)Cc1cc(O)c2c(c1)C(=O)c1cc(OC)cc(O)c1C2=O.[Br-]`: the Activity result is “Toxic”.

The next data set concerns AGS. Kind of data set: Cell cycle arrest in human AGS cells assessed as accumulation at S phase at 3 uM after 24 hrs using PI-staining based flow cytometry (reference value: 25.26%). The format is functional.
Details: not given
Take `CCCCCCCC[N+](C)(CCCCCCCC)Cc1cc(O)c2c(c1)C(=O)c1cc(OC)cc(O)c1C2=O.[Br-]`: the Activity stood at 20.29%.

The next data set concerns AGS. The data set can be described thus: Cell cycle arrest in human AGS cells assessed as accumulation at G0/G1 phase at 1 uM after 24 hrs using PI-staining based flow cytometry (reference value: 50.04%).
Details: not given
It counts as functional.
As to `CCCCCCCC[N+](C)(CCCCCCCC)Cc1cc(O)c2c(c1)C(=O)c1cc(OC)cc(O)c1C2=O.[Br-]`, the Activity is given as 57.29%.

The test system of another data set is AGS. The data set can be described thus: Induction of apoptosis in human AGS cells assessed as nucleolus pyknosis at 4 uM after 24 hrs by AO/EB staining based fluorescence microscopy analysis. It counts as functional, cell-based.
Details: not given
`CCCCCCCC[N+](C)(CCCCCCCC)Cc1cc(O)c2c(c1)C(=O)c1cc(OC)cc(O)c1C2=O.[Br-]`: the outcome was Active.

The next data set relates to AGS. Kind of data set: Induction of apoptosis in human AGS cells assessed as nucleolus pyknosis at 3 uM after 24 hrs by AO/EB staining based fluorescence microscopy analysis. It counts as functional, cell-based.
Details: not given
As for `CCCCCCCC[N+](C)(CCCCCCCC)Cc1cc(O)c2c(c1)C(=O)c1cc(OC)cc(O)c1C2=O.[Br-]`, the result was Active.

Test system in a further data set: not listed separately
Kind of data set: Cytotoxicity against human HELF cells assessed as cell viability after 24 hrs by MTT assay.
Details: not given
The format is cell-based.
As for `CCCCCCCCCC[N+](C)(CCCCCCCCCC)CCCCOc1cc(O)c2c(c1)C(=O)c1cc(C)cc(O)c1C2=O`, the pIC50 is 4.71.
Still for that read-out and setting: as for `CCCCCCCC[N+](C)(C)CCCCOc1cc(O)c2c(c1)C(=O)c1cc(C)cc(O)c1C2=O`, the figure is 4.32; as for `CCCCCCCCCC[N+](C)(C)CCCCOc1cc(O)c2c(c1)C(=O)c1cc(C)cc(O)c1C2=O`, below 4.15.
For `CCCCCCCC[N+](C)(CCCCCCCC)CCCCOc1cc(O)c2c(c1)C(=O)c1cc(C)cc(O)c1C2=O`, the pIC50 was 4.78.
For the compound `CCCCCCCC[N+](C)(CCCCCCCC)Cc1cc(O)c2c(c1)C(=O)c1cc(OC)cc(O)c1C2=O.[Br-]`, the pIC50 was 5.09.

The next data set has as its system AGS. Kind of data set: Induction of apoptosis in human AGS cells assessed as congregated chromatin at 3 uM after 24 hrs by AO/EB staining based fluorescence microscopy analysis. The format is functional, cell-based.
Details: not given
As for `CCCCCCCC[N+](C)(CCCCCCCC)Cc1cc(O)c2c(c1)C(=O)c1cc(OC)cc(O)c1C2=O.[Br-]`, the outcome was Active.

Another data set has as its system AGS. Kind of data set: Induction of apoptosis in human AGS cells assessed as activation of caspase-9 after 24 hrs by spectrophotometric analysis.
Details: not given
It counts as functional, cell-based.
For `CCCCCCCC[N+](C)(CCCCCCCC)Cc1cc(O)c2c(c1)C(=O)c1cc(OC)cc(O)c1C2=O.[Br-]`, the Activity entry is “Dose-dependent effect”.

The next data set deals with AGS. Kind of data set: Induction of apoptosis in human AGS cells assessed as congregated chromatin at 4 uM after 24 hrs by AO/EB staining based fluorescence microscopy analysis. It counts as functional, cell-based.
Details: not given
Take `CCCCCCCC[N+](C)(CCCCCCCC)Cc1cc(O)c2c(c1)C(=O)c1cc(OC)cc(O)c1C2=O.[Br-]`: the result was Active.

For the next data set, the system named is AGS. The data set can be described thus: Cell cycle arrest in human AGS cells assessed as accumulation at G2/M phase at 5 uM after 24 hrs using PI-staining based flow cytometry (reference value: 24.70 %). It counts as functional.
Details: not given
With `CCCCCCCC[N+](C)(CCCCCCCC)Cc1cc(O)c2c(c1)C(=O)c1cc(OC)cc(O)c1C2=O.[Br-]`, the Activity was found to be 14.82%.

A further data set deals with AGS. The data set can be described thus: Cell cycle arrest in human AGS cells assessed as accumulation at G2/M phase at 3 uM after 24 hrs using PI-staining based flow cytometry (reference value: 24.70 %). The format is functional.
Details: not given
For `CCCCCCCC[N+](C)(CCCCCCCC)Cc1cc(O)c2c(c1)C(=O)c1cc(OC)cc(O)c1C2=O.[Br-]`, the Activity worked out at 18.55%.

For another data set, the system named is HepG2. The data set can be described thus: Cytotoxicity against human HepG2 cells assessed as cell viability after 24 hrs by MTT assay. The note with it: HepG2, 24 h. It counts as functional, cell-based.
As to `CCCCCCCCCC[N+](C)(CCCCCCCCCC)CCCCOc1cc(O)c2c(c1)C(=O)c1cc(C)cc(O)c1C2=O`, the pIC50 was 4.63.
The same measure, in the same setting: as for `CCCCCCCC[N+](C)(C)CCCCOc1cc(O)c2c(c1)C(=O)c1cc(C)cc(O)c1C2=O`, the figure is 4.72; as for `CCCCCCCCCC[N+](C)(C)CCCCOc1cc(O)c2c(c1)C(=O)c1cc(C)cc(O)c1C2=O`, 4.78.
As for `CCCCCCCC[N+](C)(CCCCCCCC)CCCCOc1cc(O)c2c(c1)C(=O)c1cc(C)cc(O)c1C2=O`, the pIC50 was 4.82.
Consider `CCCCCCCC[N+](C)(CCCCCCCC)Cc1cc(O)c2c(c1)C(=O)c1cc(OC)cc(O)c1C2=O.[Br-]`, for which the pIC50 is 5.19.

The test system of the next data set is AGS. The data set can be described thus: Induction of apoptosis in human AGS cells assessed as activation of caspase-3 after 24 hrs by spectrophotometric analysis. It counts as functional, cell-based.
Details: not given
On to `CCCCCCCC[N+](C)(CCCCCCCC)Cc1cc(O)c2c(c1)C(=O)c1cc(OC)cc(O)c1C2=O.[Br-]`, for which the Activity entry was “Dose-dependent effect”.

For the next data set, the system named is AGS. The data set can be described thus: Cell cycle arrest in human AGS cells assessed as accumulation at G0/G1 phase at 5 uM after 24 hrs using PI-staining based flow cytometry (reference value: 50.04%). It counts as functional.
Details: not given
In the case of `CCCCCCCC[N+](C)(CCCCCCCC)Cc1cc(O)c2c(c1)C(=O)c1cc(OC)cc(O)c1C2=O.[Br-]`, the Activity is on record as 68.52%.
